Measurements published in the supplement of paper PMC10307832.

Experiments:
Test in all cases: relative viability (nuclei count vs DMSO), 5 days (fraction); higher = more cells survive
[1] = test system: HCC-827
Method in brief: (§1)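 After 5 days of treatment, lung cancer cells in 1536-well plates were fixed and stained in a single step (final 0.05% Triton X-100, 1% formaldehyde, 1 ug/ml Hoechst) and their nuclei counted on 4× images. Treatment had been applied by pin tool the day after seeding as one drug alone or as a fixed anchor-drug dose with five library-drug doses (not always all listed) in √10 steps. Relative viability is the nuclei count of treated wells divided by that of vehicle wells, and values are medians of duplicate plates.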

[2] = test system: HCC-366
Method in brief: as §1

[3] = test system: LK-2
Method in brief: as §1

[4] = test system: EKVX
Method in brief: as §1

[5] = test system: LU99A
Method in brief: as §1

[6] = test system: NCI-H1650
Method in brief: as §1

[7] = test system: NCI-H1755
Method in brief: as §1

[8] = test system: NCI-H1734
Method in brief: as §1

[9] = test system: NCI-H1648
Method in brief: as §1

[10] = test system: LC-2-ad
Method in brief: as §1

[11] = test system: RERF-LC-KJ
Method in brief: as §1

[12] = test system: NCI-H661
Method in brief: as §1

[13] = test system: 201T
Method in brief: as §1

[14] = test system: HCC-15
Method in brief: as §1

[15] = test system: NCI-H2347
Method in brief: as §1

[16] = test system: HCC-78
Method in brief: as §1

[17] = test system: NCI-H441
Method in brief: as §1

[18] = test system: COR-L 105
Method in brief: as §1

[19] = test system: COR-L23
Method in brief: as §1

[20] = test system: NCI-H1944
Method in brief: as §1

[21] = test system: NCI-H1915
Method in brief: as §1

[22] = test system: BEN
Method in brief: as §1

[23] = test system: PC-3 [JPC-3]
Method in brief: as §1

[24] = test system: SW 900
Method in brief: as §1

Oc1nc(-c2ccc(C(F)(F)F)cc2)nc2c1CSCC2 [XAV939] + CC(=O)Nc1cccc(-n2c(=O)n(C3CC3)c(=O)c3c(Nc4ccc(I)cc4F)n(C)c(=O)c(C)c32)c1 [Trametinib] (partner 0.02 µM)
relative viability ([1]; first compound 0.08 µM): 0.592
relative viability ([1]; first compound 0.253 µM): 0.504
relative viability ([1]; first compound 0.8 µM): 0.642
relative viability ([1]; first compound 2.53 µM): 0.514
relative viability ([2]; first compound 0.08 µM): 0.307
relative viability ([2]; first compound 0.253 µM): 0.28
relative viability ([2]; first compound 0.8 µM): 0.327
relative viability ([2]; first compound 2.53 µM): 0.259
relative viability ([3]; first compound 0.08 µM): 0.788
relative viability ([3]; first compound 0.253 µM): 0.792
relative viability ([3]; first compound 0.8 µM): 0.703
relative viability ([3]; first compound 2.53 µM): 0.535
relative viability ([4]; first compound 0.08 µM): 0.346
relative viability ([4]; first compound 0.253 µM): 0.317
relative viability ([4]; first compound 0.8 µM): 0.311
relative viability ([4]; first compound 2.53 µM): 0.245
relative viability ([5]; first compound 0.08 µM): 0.678
relative viability ([5]; first compound 0.253 µM): 0.521
relative viability ([5]; first compound 0.8 µM): 0.524
relative viability ([5]; first compound 2.53 µM): 0.542
relative viability ([6]; first compound 0.08 µM): 0.568
relative viability ([6]; first compound 0.253 µM): 0.511
relative viability ([6]; first compound 0.8 µM): 0.591
relative viability ([6]; first compound 2.53 µM): 0.303
relative viability ([7]; first compound 0.08 µM): 0.719
relative viability ([7]; first compound 0.253 µM): 0.64
relative viability ([7]; first compound 0.8 µM): 0.661
relative viability ([7]; first compound 2.53 µM): 0.692
relative viability ([8]; first compound 0.08 µM): 0.77
relative viability ([8]; first compound 0.253 µM): 0.616
relative viability ([8]; first compound 0.8 µM): 0.593
relative viability ([8]; first compound 2.53 µM): 0.647
relative viability ([9]; first compound 0.253 µM): 0.438
relative viability ([9]; first compound 0.8 µM): 0.606
relative viability ([9]; first compound 2.53 µM): 0.361
relative viability ([10]; first compound 0.08 µM): 0.932
relative viability ([10]; first compound 0.253 µM): 0.899
relative viability ([10]; first compound 0.8 µM): 0.922
relative viability ([10]; first compound 2.53 µM): 0.79
relative viability ([11]; first compound 0.08 µM): 0.859
relative viability ([11]; first compound 0.253 µM): 0.733
relative viability ([11]; first compound 0.8 µM): 0.768
relative viability ([11]; first compound 2.53 µM): 0.603
relative viability ([12]; first compound 0.08 µM): 0.617
relative viability ([12]; first compound 0.253 µM): 0.538
relative viability ([12]; first compound 0.8 µM): 0.543
relative viability ([12]; first compound 2.53 µM): 0.568
relative viability ([13]; first compound 0.08 µM): 0.78
relative viability ([13]; first compound 0.253 µM): 0.648
relative viability ([13]; first compound 0.8 µM): 0.685
relative viability ([13]; first compound 2.53 µM): 0.569
relative viability ([14]; first compound 0.08 µM): 0.416
relative viability ([14]; first compound 0.253 µM): 0.342
relative viability ([14]; first compound 0.8 µM): 0.376
relative viability ([14]; first compound 2.53 µM): 0.304
relative viability ([15]; first compound 0.08 µM): 0.302
relative viability ([15]; first compound 0.253 µM): 0.278
relative viability ([15]; first compound 0.8 µM): 0.308
relative viability ([15]; first compound 2.53 µM): 0.236
relative viability ([16]; first compound 0.08 µM): 0.827
relative viability ([16]; first compound 0.253 µM): 0.642
relative viability ([16]; first compound 0.8 µM): 0.842
relative viability ([16]; first compound 2.53 µM): 0.535
relative viability ([17]; first compound 0.08 µM): 0.513
relative viability ([17]; first compound 0.253 µM): 0.366
relative viability ([17]; first compound 0.8 µM): 0.414
relative viability ([17]; first compound 2.53 µM): 0.484
relative viability ([18]; first compound 0.08 µM): 0.43
relative viability ([18]; first compound 0.253 µM): 0.433
relative viability ([18]; first compound 0.8 µM): 0.4
relative viability ([18]; first compound 2.53 µM): 0.414
relative viability ([19]; first compound 0.08 µM): 0.651
relative viability ([19]; first compound 0.253 µM): 0.597
relative viability ([19]; first compound 0.8 µM): 0.543
relative viability ([19]; first compound 2.53 µM): 0.531
relative viability ([20]; first compound 0.08 µM): 0.418
relative viability ([20]; first compound 0.253 µM): 0.388
relative viability ([20]; first compound 0.8 µM): 0.412
relative viability ([20]; first compound 2.53 µM): 0.292
relative viability ([21]; first compound 0.08 µM): 0.359
relative viability ([21]; first compound 0.253 µM): 0.296
relative viability ([21]; first compound 0.8 µM): 0.276
relative viability ([21]; first compound 2.53 µM): 0.294
relative viability ([22]; first compound 0.08 µM): 1.07
relative viability ([22]; first compound 0.253 µM): 1.01
relative viability ([22]; first compound 0.8 µM): 1.19
relative viability ([22]; first compound 2.53 µM): 0.88
relative viability ([23]; first compound 0.253 µM): 0.613
relative viability ([23]; first compound 0.8 µM): 0.722
relative viability ([23]; first compound 2.53 µM): 0.677
relative viability ([24]; first compound 0.253 µM): 0.579
relative viability ([24]; first compound 0.8 µM): 0.955
relative viability ([24]; first compound 2.53 µM): 0.495
